Data set [1] concerns the target T1, Kappa-type opioid receptor (Homo sapiens, UniProt P41145). Put plainly: Agonist activity at human kappa opioid receptor expressed in CHO cell membrane by [35S]GTPgammaS binding assay. (In general: Binding of GTPγS marks nucleotide exchange on a G protein.)
Data set [2] has as its target T2, Delta-type opioid receptor (Homo sapiens, UniProt P41143). The experiment in a line: Displacement of [3H]naltrindole from human delta opioid receptor expressed in CHO cell membrane. The format is cell membranes. (In general: Loss of bound radioactivity is the signal in a displacement assay; it reports binding, not function.)
Data set [3] deals with T3, Mu-type opioid receptor (Homo sapiens, UniProt P35372). Put plainly: Agonist activity at human mu opioid receptor expressed in CHO cell membrane by [35S]GTPgammaS binding assay. The format is functional, cell membranes.
Data set [4] has as its target T4, Nociceptin receptor (Homo sapiens, UniProt P41146). The experiment in a line: Displacement of [125I]Tyr14-NC/OFQ from human ORL1 receptor.
The target in data set [5] is 5-hydroxytryptamine receptor 2B (Homo sapiens) (UniProt P41595). Put plainly: Inhibition of 5HT2B receptor at 10 uM.
Data set [6] can be described thus: Clearance in Sprague-Dawley rat at 3 mg/kg, po and 1 mg/kg, iv. Format: ADME, organism-based. The following applies: in vivo.
Data set [7] in a line: Biodistribution in ICR mouse plasma at 30 mg/kg, po after 60 mins. Format: ADME, organism-based. More on the design: dose 30 mg/kg, route oral. The following applies: read-out: Drug uptake.
Data set [8] can be described thus: Bioavailability in Sprague-Dawley rat at 3 mg/kg, po and 1 mg/kg, iv. Format: ADME, organism-based. The following applies: in vivo.
The nature of data set [9]: Half life in rhesus monkey at 3 mg/kg, po and 1 mg/kg, iv. The format is ADME, organism-based, Macaca mulatta. The following applies: in vivo.
Data set [10] concerns the target T3, Mu-type opioid receptor. The experiment in a line: Displacement of [3H]diprenorphin from human mu opioid receptor expressed in CHO cell membrane. Format: cell membranes.
Data set [11] deals with T1, Kappa-type opioid receptor. The experiment in a line: Displacement of [3H]U-69593 from human kappa opioid receptor expressed in CHO cell membrane. The format is cell membranes.
A short description of data set [12]: Bioavailability in ICR mouse at 3 mg/kg, po and 1 mg/kg, iv. Format: ADME, organism-based. The following applies: in vivo.
A short description of data set [13]: Clearance in rhesus monkey at 3 mg/kg, po and 1 mg/kg, iv. Format: ADME, organism-based, Macaca mulatta. Conditions: in vivo.
Data set [14] in a line: Clearance in ICR mouse at 3 mg/kg, po and 1 mg/kg, iv. The format is ADME, organism-based. The following applies: in vivo.
For data set [15], the target named is T4, Nociceptin receptor. The experiment in a line: Antagonist activity at human ORL1 receptor by [35S]GTPgammaS binding assay. Format: functional.
Data set [16] can be described thus: Half life in ICR mouse at 3 mg/kg, po and 1 mg/kg, iv. The format is ADME, organism-based. The following applies: in vivo.
The nature of data set [17]: Bioavailability in rhesus monkey at 3 mg/kg, po and 1 mg/kg, iv. The format is ADME, organism-based, Macaca mulatta. The following applies: in vivo.
The nature of data set [18]: Metabolic stability in human liver microsomes assessed as drug remaining after 30 mins. The format is ADME, Microsome. Conditions: read-out: Stability. In general terms: Liver microsomes are vesicles of endoplasmic reticulum, rich in cytochrome P450 enzymes.
For the next data set, the target named is hERG (KCNH2) (Homo sapiens, UniProt Q12809). The experiment in a line: Inhibition of human ERG at 10 uM.
In a further data set the test system is Mus musculus. The experiment in a line: Biodistribution in ICR mouse brain at 30 mg/kg, po after 60 mins. On the set-up: dose 30 mg/kg, route oral. Format: ADME, organism-based. The following applies: in vivo, 1 h.
Data set [19] concerns the target T2, Delta-type opioid receptor. The experiment in a line: Agonist activity at human delta opioid receptor expressed in CHO cell membrane by [35S]GTPgammaS binding assay. The format is functional, cell membranes.
The nature of data set [20]: Half life in Sprague-Dawley rat at 3 mg/kg, po and 1 mg/kg, iv. Conditions: in vivo. Format: ADME, organism-based.
Data set [21] has as its target Synaptic vesicular amine transporter (Homo sapiens) (UniProt Q05940). Put plainly: Inhibition of monoamine transporter at 10 uM.
Data set [22] is described as follows: Ratio of drug level in brain to plasma in ICR mouse at 30 mg/kg, po after 60 mins. The format is ADME, organism-based. On the set-up: dose 30 mg/kg, route oral. Conditions: read-out: BPR.
The nature of data set [23]: Inhibition of sodium channel site 2 at 10 uM.

7 compounds from ChEMBL document CHEMBL1150320, “Novel ORL1-selective antagonists with oral bioavailability and brain penetrability” (Bioorg Med Chem Lett, 2008) can be followed below.

T4 sequence (P41146 whole entry): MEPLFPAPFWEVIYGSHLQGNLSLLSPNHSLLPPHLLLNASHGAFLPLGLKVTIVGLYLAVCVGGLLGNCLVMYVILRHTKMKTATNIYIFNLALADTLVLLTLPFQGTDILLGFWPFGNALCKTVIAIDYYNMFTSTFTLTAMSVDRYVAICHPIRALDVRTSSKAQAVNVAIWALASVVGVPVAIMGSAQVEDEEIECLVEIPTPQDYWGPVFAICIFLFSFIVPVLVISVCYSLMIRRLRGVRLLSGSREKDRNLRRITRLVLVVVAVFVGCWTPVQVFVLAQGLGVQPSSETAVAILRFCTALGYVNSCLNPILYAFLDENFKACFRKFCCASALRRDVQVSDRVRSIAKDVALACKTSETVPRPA
T3 sequence (P35372 whole entry): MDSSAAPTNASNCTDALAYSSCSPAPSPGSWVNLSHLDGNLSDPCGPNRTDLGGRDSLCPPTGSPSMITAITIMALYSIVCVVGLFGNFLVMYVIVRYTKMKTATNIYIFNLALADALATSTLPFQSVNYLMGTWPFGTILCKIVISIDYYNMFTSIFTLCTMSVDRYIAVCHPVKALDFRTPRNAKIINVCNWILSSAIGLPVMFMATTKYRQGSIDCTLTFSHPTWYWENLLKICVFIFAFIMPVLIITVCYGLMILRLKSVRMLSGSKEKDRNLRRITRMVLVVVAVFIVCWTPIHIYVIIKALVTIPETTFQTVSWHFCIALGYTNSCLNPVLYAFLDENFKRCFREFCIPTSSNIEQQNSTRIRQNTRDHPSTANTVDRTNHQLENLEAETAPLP
T2 sequence (P41143 whole entry): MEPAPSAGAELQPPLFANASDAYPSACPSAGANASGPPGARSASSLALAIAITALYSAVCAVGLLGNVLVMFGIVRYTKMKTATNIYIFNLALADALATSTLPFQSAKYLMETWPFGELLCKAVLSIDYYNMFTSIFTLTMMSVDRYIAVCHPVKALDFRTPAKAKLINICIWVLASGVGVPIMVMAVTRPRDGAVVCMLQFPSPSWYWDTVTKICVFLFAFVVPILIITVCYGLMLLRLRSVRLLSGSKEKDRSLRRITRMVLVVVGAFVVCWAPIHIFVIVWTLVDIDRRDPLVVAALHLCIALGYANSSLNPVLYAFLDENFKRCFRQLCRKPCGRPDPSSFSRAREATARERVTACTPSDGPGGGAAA
T1 sequence (P41145 whole entry): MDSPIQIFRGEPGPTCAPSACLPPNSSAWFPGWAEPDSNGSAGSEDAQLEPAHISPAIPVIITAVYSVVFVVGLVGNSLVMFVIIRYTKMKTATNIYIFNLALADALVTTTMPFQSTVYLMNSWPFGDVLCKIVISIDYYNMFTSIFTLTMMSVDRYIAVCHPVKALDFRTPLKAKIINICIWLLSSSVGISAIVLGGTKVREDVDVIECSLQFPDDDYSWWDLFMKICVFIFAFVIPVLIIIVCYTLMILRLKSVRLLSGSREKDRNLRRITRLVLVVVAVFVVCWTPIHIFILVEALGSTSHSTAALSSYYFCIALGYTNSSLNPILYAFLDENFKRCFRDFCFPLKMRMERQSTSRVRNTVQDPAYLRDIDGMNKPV
5-hydroxytryptamine receptor 2B (Homo sapiens), sequence (P41595 whole entry): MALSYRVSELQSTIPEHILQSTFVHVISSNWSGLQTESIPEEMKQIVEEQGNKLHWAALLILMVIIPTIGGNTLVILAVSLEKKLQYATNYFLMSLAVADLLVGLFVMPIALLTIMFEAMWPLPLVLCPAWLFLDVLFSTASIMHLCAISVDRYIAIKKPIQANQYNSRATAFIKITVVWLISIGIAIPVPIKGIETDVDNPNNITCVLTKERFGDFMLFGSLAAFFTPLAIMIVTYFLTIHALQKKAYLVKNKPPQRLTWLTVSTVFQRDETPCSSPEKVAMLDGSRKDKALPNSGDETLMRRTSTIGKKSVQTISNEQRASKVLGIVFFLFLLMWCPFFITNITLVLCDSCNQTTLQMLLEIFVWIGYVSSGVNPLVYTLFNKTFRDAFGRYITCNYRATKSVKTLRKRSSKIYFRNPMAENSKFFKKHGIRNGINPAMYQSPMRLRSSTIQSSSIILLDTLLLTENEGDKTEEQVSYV
hERG (KCNH2), sequence (Q12809 whole entry): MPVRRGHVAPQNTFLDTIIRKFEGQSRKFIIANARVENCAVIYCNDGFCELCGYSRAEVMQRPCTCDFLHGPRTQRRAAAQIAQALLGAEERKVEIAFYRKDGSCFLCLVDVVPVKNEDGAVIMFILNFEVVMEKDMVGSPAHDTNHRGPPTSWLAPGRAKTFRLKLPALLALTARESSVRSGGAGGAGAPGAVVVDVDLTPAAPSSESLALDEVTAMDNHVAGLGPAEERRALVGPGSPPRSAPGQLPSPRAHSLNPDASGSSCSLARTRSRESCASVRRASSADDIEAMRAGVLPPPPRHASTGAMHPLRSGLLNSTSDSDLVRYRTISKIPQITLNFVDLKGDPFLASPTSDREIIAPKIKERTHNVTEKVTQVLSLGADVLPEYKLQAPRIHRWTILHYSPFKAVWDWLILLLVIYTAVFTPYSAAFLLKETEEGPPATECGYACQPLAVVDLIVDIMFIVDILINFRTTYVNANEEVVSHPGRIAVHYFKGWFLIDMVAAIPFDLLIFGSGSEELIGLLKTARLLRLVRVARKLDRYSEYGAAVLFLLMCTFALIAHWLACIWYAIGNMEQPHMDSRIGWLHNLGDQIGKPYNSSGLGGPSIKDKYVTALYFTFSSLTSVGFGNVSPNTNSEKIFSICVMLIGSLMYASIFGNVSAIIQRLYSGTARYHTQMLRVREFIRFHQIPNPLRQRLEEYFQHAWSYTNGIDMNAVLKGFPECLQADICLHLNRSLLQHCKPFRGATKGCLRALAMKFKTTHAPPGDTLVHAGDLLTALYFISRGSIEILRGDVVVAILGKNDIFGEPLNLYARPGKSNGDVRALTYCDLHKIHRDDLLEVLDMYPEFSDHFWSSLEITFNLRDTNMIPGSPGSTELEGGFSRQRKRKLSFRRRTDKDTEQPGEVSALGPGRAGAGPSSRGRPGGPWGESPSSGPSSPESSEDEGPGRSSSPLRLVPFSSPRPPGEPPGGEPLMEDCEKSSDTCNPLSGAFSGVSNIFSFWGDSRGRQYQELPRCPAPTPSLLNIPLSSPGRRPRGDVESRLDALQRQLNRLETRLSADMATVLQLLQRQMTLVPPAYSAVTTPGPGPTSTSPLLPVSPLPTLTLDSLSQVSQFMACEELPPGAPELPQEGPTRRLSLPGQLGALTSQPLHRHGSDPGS
Synaptic vesicular amine transporter (Homo sapiens), sequence (Q05940 whole entry): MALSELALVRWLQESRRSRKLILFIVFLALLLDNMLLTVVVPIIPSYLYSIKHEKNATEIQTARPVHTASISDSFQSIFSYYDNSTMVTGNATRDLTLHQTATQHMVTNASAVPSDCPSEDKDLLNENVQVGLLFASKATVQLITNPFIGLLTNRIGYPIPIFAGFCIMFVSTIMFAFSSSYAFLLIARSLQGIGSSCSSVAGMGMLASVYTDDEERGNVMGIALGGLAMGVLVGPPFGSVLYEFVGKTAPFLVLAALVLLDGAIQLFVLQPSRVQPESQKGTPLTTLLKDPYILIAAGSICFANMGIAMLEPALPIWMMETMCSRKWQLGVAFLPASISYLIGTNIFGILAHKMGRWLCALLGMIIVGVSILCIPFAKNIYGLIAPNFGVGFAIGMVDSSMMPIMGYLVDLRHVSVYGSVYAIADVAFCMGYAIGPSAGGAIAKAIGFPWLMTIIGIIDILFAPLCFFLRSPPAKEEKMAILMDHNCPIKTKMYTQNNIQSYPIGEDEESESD

For `C[C@@H]1CN(CCO)CCN1c1cc2[nH]c(SC(C)(C)C)nc2cc1Cl`, the IC50 (usually the concentration at which inhibition is half-maximal) in [1] was 180 nM; in data set [2] it was > 1000 nM; at Mu-type opioid receptor [3] it was 97 nM; on Nociceptin receptor [4], 2.6 nM; on Mu-type opioid receptor [10], 1900 nM; in [11] it was 120 nM. Moreover, the values for the IC50 (at Nociceptin receptor [15]; in data set [19]) were 0.65 nM and 1200 nM, respectively. In addition, the inhibition – broadly, the change of the read-out against control, counted positive when it falls – in [5] is 52%; in [21], 52%; in [23], 68%. Besides, the clearance in data set [6] was 81 mL/min/kg; in [13], 20 mL/min/kg; in data set [14], 121 mL/min/kg. Further, the concentration at 1 h in [7] was 2380 nM. For the same compound, the bioavailability (usually the share of a dose that reaches the circulation, judged against a reference dose that is usually intravenous) in data set [8] was determined as 29%; in data set [12] it was 33%; in data set [17], 37%. Moreover, the half-life (usually the time in which the quantity being followed falls by half) in [9] is 186 min; in [16] it was 48.6 min; in data set [20] it was 55.2 min. Moreover, the remaining at 0.5 h in data set [18] is 87%. The same compound gave an inhibition at 10 µM against hERG (KCNH2) of 86%. In the data set with Mus musculus, the Drug uptake was 1.04 µmol/kg. Also, the Kp at 1 h in [22] is 0.47.

As to `CC(C)(C)Sc1nc2cc(Cl)c(N3CCN(CCO)CC3)cc2[nH]1`, the IC50 in [2] is > 1000 nM. In data set [18], the remaining at 0.5 h is 71%.

On to `CCC(CC)Sc1nc2cc(Cl)c(N3C[C@@H]4C[C@H]3CN4CCO)cc2[nH]1`, for which the results for the half-inhibitory concentration (IC50) on Nociceptin receptor [4] and at Nociceptin receptor [15] were 18 nM and 27 nM, respectively. In data set [18], the remaining at 0.5 h was found to be 63%.

With `CCC(C)(CC)Sc1nc2cc(Cl)c(N3CCN(CCO)CC3)cc2[nH]1`, the remaining at 0.5 h in data set [18] came to 36%.

For `C[C@H]1CN(CCO)CCN1c1cc2[nH]c(SC(C)(C)C)nc2cc1Cl`, the EC50 (in general, the concentration giving half of the maximal effect) in [1] was determined as 18 nM; in data set [19] it was 14 nM. Besides, the IC50 in [2] came to 238 nM; on Mu-type opioid receptor [3], 25 nM; on Nociceptin receptor [4], 1.1 nM; at Mu-type opioid receptor [10], 67 nM; in data set [11], 5.3 nM; at Nociceptin receptor [15], 2.2 nM. Further, the remaining at 0.5 h in data set [18] stood at 70%. Moreover, the Emax – broadly, the size of the effect at its maximum, as opposed to the concentration needed – in data set [19] stood at 94%.

As for `CCC(CC)Sc1nc2cc(Cl)c(N3CCN(CCO)C(C)C3)cc2[nH]1` (racemic), the IC50 at Nociceptin receptor [4] worked out at 8 nM; on Nociceptin receptor [15] it was 22 nM. In [18], the remaining at 0.5 h worked out at 17%.

Consider `CCC(CC)Sc1nc2cc(Cl)c(N3CCN(CCO)C(C)(C)C3)cc2[nH]1`, for which the results for the 50% inhibitory concentration (IC50) at Nociceptin receptor [4] and at Nociceptin receptor [15] were 73 nM and 59 nM, respectively. Moreover, the remaining at 0.5 h in [18] is 7%.
